Laboratory results from patent US8058270B2, “Dihydropteridinones for the treatment of cancer diseases” (Boehringer Ingelheim International GmbH, priority 2004, dated 2011).

Columns and labels:
Format in all cases: cell-based
[1] = tested on: A549; assay: FACS analysis on PI stained tumor cells, G2/M arrest; settings: Homo sapiens; A549 (Lung), 24 hrs; read-out: FACS Analysis G2M-Arrest EC50
Excerpt: (§1) FACS Analysis on PI Stained Tumor Cells
(§2) Propidium iodine (PI) binds stoichiometrically to double stranded DNA and thus is a suitable agent to measure the DNA content of cells in order to determine the percentage of cells residing in various cell cycle stages (G0/1-, S- and G2/M-phases), whereas cells in G0 or G1 phase do have a diploid DNA content (2N) cells in G2 and M-phase (mitosis) do have a doubled (4N) DNA content.
(§3) Cell culture: The various human tumor cell lines can be purchased from American Type Culture Collection (ATCC) or the German Collection of Microorganisms and Cell Cultures (DSMZ) and cultivated in 75 to 175 cm^2 tissue culture flasks in the medium indicated by the supplier. The cells are maintained at 37° C. and 5% CO2 in a humidified atmosphere, with an appropriate split ratio. Logarithmically growing cells are used for the assays.
(§4) Assay conditions: On day one of the experiment 1×10^6 tumor cells are plated in 15 ml medium onto each 75 cm^2 tissue culture flask and the cultures are returned to the incubator. On the next day serial twofold dilutions (100× concentrated) of the inhibitor are prepared in tissue culture medium containing 10% DMSO. 150 μl of the 100× concentrated dilution is added to the 15 ml medium in the flask. As control DMSO is given into a separate flask to yield a final concentration of 0.1%. Typical final concentrations used are 1.6, […], 0.4, 0.2, 0.1, 0.05, 0.025, 0.0125, 0.00625 μM in medium containing 0.1% DMSO. After 24 hrs of incubation cells are harvested by 2× wash with PBS and subsequent addition of trypsin/EDTA. Trypsinized cells are washed off the plastic with 1% BSA in PBS. Non-adherent cells in the medium and cells in the PBS wash fluids are pelleted together with the trypsinized cells by centrifuging them for 5 min at 1000 rpm at 4° C. The supernatants are discarded and the pellet is washed twice with PBS. After aspiration of the supernatants pellets are resuspended in the residual PBS (˜100 μl). For cell fixation, 15 ml test tubes (Falcon) with 5 ml of 80% cold ethanol are prepared and the cell suspension is added slowly and kept for at least 2 h or overnight at minus 20° C. Fixed cells are pelleted, washed once with PBS and the cell pellet is then resuspended in 2 ml of 0.25% Triton X-100 in PBS. After 5 min incubation on ice, 5 ml of PBS is added to each sample and the sample is again centrifuged at 1000 rpm for 5 min at 4° C. The supernatant is discarded and the pellet is resuspended in 0.5 ml propidium iodine (PI) staining solution (0.1% RNase and 10 μg/ml propidium iodine in PBS). The cells are incubated for 20 min in the dark and subsequently transferred to 5 ml polystyrene round-bottom tubes.
(§5) Data analysis: Analysis of the DNA content of the cells can be performed using a FACS analyzer equipped with an argon laser (500 mW, emission 488 nm) and the use of the DNA Cell Quest analysis software (Beckton Dickinson). The logarithmic PI fluorescence is determined in a band-pass filter (Beckton Dickinson 585/43). Quantification of the cell populations residing in the individual cell cycle phases (e.g. G0/G1-, S- and G2/M-phases) is done with the ModFit LT software package from Becton Dickinson. An EC50 value for cells arrested at the G2/M-phase of the cell cycle is calculated by using a sigmoidal curve analysis program (Graph Pad Prism version 3.03).

[2] = tested on: NCI-H460; assay: as above; settings: Homo sapiens; NCI-H460 (Lung), 24 hrs; read-out: FACS Analysis G2M-Arrest EC50
Excerpt: as §1, §2, §3, §4, §5

[3] = tested on: PC-3; assay: as above; settings: Homo sapiens; PC-3 (Prostate), 24 hrs; read-out: FACS Analysis G2M-Arrest EC50
Excerpt: as §1, §2, §3, §4, §5

[4] = tested on: Saos-2; assay: as above; settings: Homo sapiens; Saos-2 (Bone), 24 hrs; read-out: FACS Analysis G2M-Arrest EC50
Excerpt: as §1, §2, §3, §4, §5

[5] = tested on: Raji; assay: as above; settings: Homo sapiens; Raji (Lymphoma), 24 hrs; read-out: FACS Analysis G2M-Arrest EC50
Excerpt: as §1, §2, §3, §4, §5

[6] = tested on: GRANTA-519; assay: as above; settings: Homo sapiens; GRANTA-519 (Lymphoma), 24 hrs; read-out: FACS Analysis G2M-Arrest EC50
Excerpt: as §1, §2, §3, §4, §5

[7] = tested on: NCI-H520; assay: as above; settings: Homo sapiens; NCI-H520 (Lung), 24 hrs; read-out: FACS Analysis G2M-Arrest EC50
Excerpt: as §1, §2, §3, §4, §5

[8] = tested on: HepG2; assay: as above; settings: Homo sapiens; HepG2 (Liver), 24 hrs; read-out: FACS Analysis G2M-Arrest EC50
Excerpt: as §1, §2, §3, §4, §5

[9] = tested on: HeLa S3; assay: as above; settings: Homo sapiens; HeLa S3 (Cervix), 24 hrs; read-out: FACS Analysis G2M-Arrest EC50
Excerpt: as §1, §2, §3, §4, §5

[10] = tested on: FaDu; assay: as above; settings: Homo sapiens; FaDu (Head and Neck), 24 hrs; read-out: FACS Analysis G2M-Arrest EC50
Excerpt: as §1, §2, §3, §4, §5

[11] = tested on: H4; assay: as above; settings: Homo sapiens; H4 (Brain), 24 hrs; read-out: FACS Analysis G2M-Arrest EC50
Excerpt: as §1, §2, §3, §4, §5

[12] = tested on: SKOV-3; assay: as above; settings: Homo sapiens, SK-OV-3; SKOV-3 (Ovary), 24 hrs; read-out: FACS Analysis G2M-Arrest EC50
Excerpt: as §1, §2, §3, §4, §5

[13] = tested on: A431; assay: as above; settings: Homo sapiens, A-431; A431 (Vulva), 24 hrs; read-out: FACS Analysis G2M-Arrest EC50
Excerpt: as §1, §2, §3, §4, §5

[14] = tested on: BxPC-3; assay: as above; settings: Homo sapiens; BxPC-3 (Pancreas), 24 hrs; read-out: FACS Analysis G2M-Arrest EC50
Excerpt: as §1, §2, §3, §4, §5

[15] = tested on: MDA-MB-435S; assay: as above; settings: Homo sapiens; MDA-MB-435S (Breast), 24 hrs; read-out: FACS Analysis G2M-Arrest EC50
Excerpt: as §1, §2, §3, §4, §5

[16] = tested on: A549; assay: Alamar Blue cytotoxicity assay; settings: Homo sapiens; A549 (Lung), 72 h
Excerpt: (§6) Alamar Blue™ Cytotoxicity Assays
(§7) The Alamar Blue™ assay is designed to measure quantitatively the proliferation of cells by incorporating a fluorometric/colorimetric growth indicator based on the detection of metabolic activity.
as §3
(§8) Assay conditions: On day one of the experiment 1000-4000 cells (in 100 μl medium) are seeded into each well of a sterile 96-well plate. The number of cells used is dependent on the growth rate and size of the cells. Eight wells on each plate are left free to accommodate for controls (4 wells for medium plus reduced AlamarBlue™, and 4 wells for medium plus oxidized AlamarBlue™). The plates are kept in the incubator overnight. On day two of the experiment serial dilutions of the inhibitor are prepared in medium containing 0.1% DMSO. Typical concentrations used are 10, 3, 1, 0.3, 0.1, 0.03, 0.01, 0.003 and 0.001 μM. 100 μl of the dilution (2× concentrate) is added to each well to yield a final volume of 200 μl per well. As controls plain medium and medium containing 0.1% DMSO are added to the designated wells. All data points are done in quadruplicates. The cells are then incubated for 72 h. After this incubation period 20 μl of AlamarBlue™ is added to each well. As a control, 20 μl of reduced AlamarBlue™ (AlamarBlue™ autoclaved for 30 min) is added to 4 wells without cells, and 20 μl of AlamarBlue™ is added to the remaining 4 wells without cells. After 4-5 h of incubation, the plates are measured in a fluorescence spectrophotometer (excitation 530 nm, emission 590 nm, slits 15, integrate time 0.1).
(§9) Data analysis: For calculation the mean value from the quadruplicates is taken and the background is subtracted. The 0.1% DMSO value (the mean obtained from 8 wells with cells in medium with 0.1% DMSO but no compound) is taken as 100% control. The data is fitted by iterative calculations using a sigmoidal curve analysis program (Graph Pad Prism version 3.03) with variable Hill slope.

[17] = tested on: BRO; assay: Alamar Blue cytotoxicity assay; settings: Homo sapiens; BRO (Melanoma), 72 h
Excerpt: as §6, §7, §3, §8, §9

[18] = tested on: NCI-H460; assay: Alamar Blue cytotoxicity assay; settings: Homo sapiens; NCI-H460 (Lung), 72 h
Excerpt: as §6, §7, §3, §8, §9

[19] = tested on: HCT116; assay: Alamar Blue cytotoxicity assay; settings: Homo sapiens, HCT-116; HCT116 (Colon), 72 h
Excerpt: as §6, §7, §3, §8, §9

[20] = tested on: PC-3; assay: Alamar Blue cytotoxicity assay; settings: Homo sapiens; PC-3 (Prostate), 72 h
Excerpt: as §6, §7, §3, §8, §9

[21] = tested on: Saos-2; assay: Alamar Blue cytotoxicity assay; settings: Homo sapiens; Saos-2 (Bone), 72 h
Excerpt: as §6, §7, §3, §8, §9

[22] = tested on: Raji; assay: Alamar Blue cytotoxicity assay; settings: Homo sapiens; Raji (Lymphoma), 72 h
Excerpt: as §6, §7, §3, §8, §9

[23] = tested on: SK-UT-1B; assay: Alamar Blue cytotoxicity assay; settings: Homo sapiens, Skut1B; SK-UT-1B (Uterus), 72 h
Excerpt: as §6, §7, §3, §8, §9

[24] = tested on: Colo 205; assay: Alamar Blue cytotoxicity assay; settings: Homo sapiens; Colo 205 (Colon), 72 h
Excerpt: as §6, §7, §3, §8, §9

[25] = tested on: GRANTA-519; assay: Alamar Blue cytotoxicity assay; settings: Homo sapiens; GRANTA-519 (Lymphoma), 72 h
Excerpt: as §6, §7, §3, §8, §9

[26] = tested on: NCI-N87; assay: Alamar Blue cytotoxicity assay; settings: Homo sapiens; NCI-N87 (Stomach), 72 h
Excerpt: as §6, §7, §3, §8, §9

[27] = tested on: NCI-H520; assay: Alamar Blue cytotoxicity assay; settings: Homo sapiens; NCI-H520 (Lung), 72 h
Excerpt: as §6, §7, §3, §8, §9

[28] = tested on: HepG2; assay: Alamar Blue cytotoxicity assay; settings: Homo sapiens; HepG2 (Liver), 72 h
Excerpt: as §6, §7, §3, §8, §9

[29] = tested on: Mia CaPa-2; assay: Alamar Blue cytotoxicity assay; settings: Homo sapiens; Mia CaPa-2 (Pancreas), 72 h
Excerpt: as §6, §7, §3, §8, §9

[30] = tested on: HL-60; assay: Alamar Blue cytotoxicity assay; settings: Homo sapiens; HL-60 (Leukemia), 72 h
Excerpt: as §6, §7, §3, §8, §9

[31] = tested on: HeLa S3; assay: Alamar Blue cytotoxicity assay; settings: Homo sapiens; HeLa S3 (Cervix), 72 h
Excerpt: as §6, §7, §3, §8, §9

[32] = tested on: HT29; assay: Alamar Blue cytotoxicity assay; settings: Homo sapiens, HT-29; HT29 (Colon), 72 h
Excerpt: as §6, §7, §3, §8, §9

[33] = tested on: FaDu; assay: Alamar Blue cytotoxicity assay; settings: Homo sapiens; FaDu (Head and Neck), 72 h
Excerpt: as §6, §7, §3, §8, §9

[34] = tested on: H4; assay: Alamar Blue cytotoxicity assay; settings: Homo sapiens; H4 (Brain), 72 h
Excerpt: as §6, §7, §3, §8, §9

[35] = tested on: THP-1; assay: Alamar Blue cytotoxicity assay; settings: Homo sapiens; THP-1 (Leukemia), 72 h
Excerpt: as §6, §7, §3, §8, §9

[36] = tested on: MES-SA; assay: Alamar Blue cytotoxicity assay; settings: Homo sapiens; MES-SA (Uterus), 72 h
Excerpt: as §6, §7, §3, §8, §9

[37] = tested on: SKOV-3; assay: Alamar Blue cytotoxicity assay; settings: Homo sapiens, SK-OV-3; SKOV-3 (Ovary), 72 h
Excerpt: as §6, §7, §3, §8, §9

[38] = tested on: MCF7; assay: Alamar Blue cytotoxicity assay; settings: Homo sapiens; MCF7 (Breast), 72 h
Excerpt: as §6, §7, §3, §8, §9

[39] = tested on: A431; assay: Alamar Blue cytotoxicity assay; settings: Homo sapiens, A-431; A431 (Vulva), 72 h
Excerpt: as §6, §7, §3, §8, §9

[40] = tested on: BxPC-3; assay: Alamar Blue cytotoxicity assay; settings: Homo sapiens; BxPC-3 (Pancreas), 72 h
Excerpt: as §6, §7, §3, §8, §9

[41] = tested on: MDA-MB-435S; assay: Alamar Blue cytotoxicity assay; settings: Homo sapiens; MDA-MB-435S (Breast), 72 h
Excerpt: as §6, §7, §3, §8, §9

[42] = tested on: DU145; assay: Alamar Blue cytotoxicity assay; settings: Homo sapiens, DU-145; DU145 (Prostate), 72 h
Excerpt: as §6, §7, §3, §8, §9

CC[C@@H]1C(=O)N(C)c2cnc(Nc3ccc(C(=O)NC4CCN(C)CC4)cc3OC)nc2N1C1CCCC1 [4-[[(7R)-8-cyclopentyl-7-ethyl-5,6,7,8-tetrahydro-5-methyl-6-oxo-2-pteridinyl]amino]-3-methoxy-N-(1-methyl-4-piperidinyl)-benzamide]
EC50 [1]: 14 nM
EC50 [2]: 32 nM
EC50 [3]: 12 nM
EC50 [4]: 11 nM
EC50 [5]: 20 nM
EC50 [6]: 12 nM
EC50 [7]: 18 nM
EC50 [8]: 39 nM
EC50 [9]: 16 nM
EC50 [10]: 7 nM
EC50 [11]: 39 nM
EC50 [12]: 11 nM
EC50 [13]: 6 nM
EC50 [14]: 22 nM
EC50 [15]: 38 nM
EC50 [16]: 6 nM
EC50 [17]: 4 nM
EC50 [18]: 14 nM
EC50 [19]: 9 nM
EC50 [20]: 7 nM
EC50 [21]: 8 nM
EC50 [22]: 14 nM
EC50 [23]: 8 nM
EC50 [24]: 9 nM
EC50 [25]: 5 nM
EC50 [26]: 14 nM
EC50 [27]: 10 nM
EC50 [28]: 10 nM
EC50 [29]: 7 nM
EC50 [30]: 14 nM
EC50 [31]: 12 nM
EC50 [32]: 4 nM
EC50 [33]: 6 nM
EC50 [34]: 22 nM
EC50 [35]: 9 nM
EC50 [36]: 10 nM
EC50 [37]: 4 nM
EC50 [38]: 9 nM
EC50 [39]: 2 nM
EC50 [40]: 25 nM
EC50 [41]: 17 nM
EC50 [42]: 6 nM
